≈ marks a conversion by molar mass, not a printed value. Where two headings read alike, the source gives them in different places.
How the values were obtained:
Assay type in all cases: cell-based
[1] = test system: Klebsiella pneumoniae; assay: MIC agar dilution, micro-organism 2 (9528); conditions: Klebsiella pneumoniae 9528
Protocol: (§1) Throughout the period of testing the microbial strains were subcultured and incubated for 18-20 hours at 37° C. on a weekly basis. Horse blood agar plates were used to sustain the micro-organisms both prior to and throughout testing. The alkoxylated alkanols listed in Table II below were obtained (these are obtainable from Sigma-Aldrich Company Ltd, Dorset, England), each having a GC purity of at least 97%.
(§2) Molar equivalent concentrations were used to allow comparison between compounds of differing molecular mass. Due to weighing difficulties, any compound in solid form was melted in a water bath prior to dilution. To make ten-times strength concentrations, which takes into account agar dilution, 0.0352 mmol of each compound was weighed into plastic universal bottles and 4 mL of sterile distilled water (SDW) was added. To produce a homogenous emulsion the universals were vortexed; once achieved the emulsions were serial diluted by adding 2 mL to 2 mL of SDW.
(§3) Myristyl alcohol and lauryl alcohol were re-weighed and dissolved in 25 μL of the polar solvent 1-methyl-2-pyrrolidone (M6762; Sigma-Aldrich) in sterile glass universals due to an inability to achieve an even suspension. To maintain an even emulsion in the presence of SDW 37.5 μL of the non-ionic detergent Tween 20 (P1379, Sigma-Aldrich) was also added. 3.9375 mL of SDW was added to these, to create a 4 mL volume; they were vortexed and diluted as before.
(§4) For every 100 mL of Isosensitest agar (IST) (CM0471; Oxoid, Basingstoke, England), 3.1 g of the IST powder was added to 100 mL SDW (as per manufacturer's instructions) and sterilised for 15 minutes at 121° C. Once sterilised, the molten agar was cooled to 50° C. in a water-bath. Subsequently 4.8 g of CCEY powder (BC2160; Bioconnections, Wetherby, England), also known as Brazier's medium, was added to 100 mL SDW for every 100 mL of agar needed. This was then sterilised for 15 minutes at 121° C. Once sterilised the molten agar was cooled to 50° C. in a water-bath and 4 mL of egg-yolk emulsion (S2073; TCS Biosciences Ltd, Buckingham, United Kingdom) and 1 mL of lysed defibrinated horse blood (HB035; TCS Biosciences Ltd, Buckingham, United Kingdom) were also added for every 100 mL needed. Horse blood lysis is achieved by dilution to half concentration with SDW; when fully lysed the mixture will turn dark red in colour.
(§5) 18 mL agar was added to each universal and then poured into sterile Petri dishes. This step creates a 1/10 dilution resulting in agar plates of the required strength. Control plates for each set of strains were created by adding 18 mL of agar to 2 mL of SDW.
(§6) Suspensions of each bacterial species were prepared with a density equal to that of a 0.5 McFarland standard using a densitometer. All suspensions were made using sterile distilled water and fresh 18-20 hour cultures. As a 0.5 McFarland standard contains 1.5×10^8 CFU/mL and the multipoint inoculators applies 1 μL spots of liquid, each bacterial suspension was diluted 1/15 (20 μL suspension to 280 μL sterile distilled water).
(§7) Bacterial suspensions were prepared from fresh 18-24 hour cultures as previously described. 1 μL of each strain was inoculated onto all 100 agar plates containing a different chemical concentration and the 2 control plates. This was done using a multipoint inoculator which inoculates 20 strains per plate. All plates were incubated for 22 hours at 37° C. in aerobic conditions.
(§8) Each plate was examined for bacterial growth after 22 and 48 hours, with each being incubated in between examinations. A positive result was recorded as growth of ≧10 colonies. A negative result was recorded as growth of <10 colonies as this is equivalent to 99.9% inhibition. The lowest concentration of chemical that inhibited growth was recorded as the MIC. The results are recorded in Table IV below, where the numbers are quoted in mmol/L.
(§9) Further experiments have also been conducted to determine the MIC of a number of other compositions as follows. […]

[2] = test system: Pseudomonas aeruginosa; assay: MIC agar dilution, micro-organism 7 (10662); conditions: Pseudomonas aeruginosa 10662
Protocol: as §1, §2, §3, §4, §5, §6, §7, §8, §9

[3] = test system: Yersinia enterocolitica; assay: MIC agar dilution, micro-organism 8 (11176); conditions: Yersinia enterocolitica 11176
Protocol: as §1, §2, §3, §4, §5, §6, §7, §8, §9

[4] = test system: Salmonella typhimurium; assay: MIC agar dilution, micro-organism 6 (74); conditions: Salmonella typhimurium 74
Protocol: as §1, §2, §3, §4, §5, §6, §7, §8, §9

[5] = test system: Acinetobacter baumannii; assay: MIC agar dilution, micro-organism 10 (19606); conditions: Acinetobacter baumannii 19606
Protocol: as §1, §2, §3, §4, §5, §6, §7, §8, §9

[6] = test system: Staphylococcus aureus; assay: Additional antibacterial data, MIC (Table XII), Gram positive control; conditions: Staphylococcus aureus 470273M (control); inoculum 10000 cfu/spot; 24 hrs at 37° C.
Protocol: (§10) Using the protocols outlined in the example above, the inventors further investigated the antibacterial effects of representative alkoxylated alkanol compounds. The inoculum was 10000 cfu/spot; inclubation was for 24 hrs at 37° C.

[7] = test system: Staphylococcus aureus(MRSA); assay: as above; conditions: Staphylococcus aureus(MRSA) 380022E (control); inoculum 10000 cfu/spot; 24 hrs at 37° C.
Protocol: as §10

[8] = test system: Gram-negative species; assay: Additional antibacterial data, MIC (Table XII); conditions: 24 hrs at 37° C.; for MIC (%) volume/volume: inoculum 10000 cfu/spot
Protocol: as §10

[9] = test system: A549 (ATCC CCL-185) cells
Protocol: A549 (ATCC CCL-185) cells were plated onto a 96 well and allowed to attach overnight, the wells were washed, and 100 ul of DMEM (Gibco) with 2% FCS was added. To the first column of the data set below, 100 μl of neat virus was added. The virus used was Respiratory Syncytial Virus (RSV), strain A2, a common laboratory strain which retains the ability to infect animal models.
A two serial dilution was performed (up to column 10), lanes 11+12 were uninfected controls, but relevant lanes contained the appropriate concentration of Laureth 4, laureth 4 was added 1 hour after virus absorption. The alkoxylated alkanol compounds used in the experiment were ‘high purity’, i.e. having a GC purity of at least 97%.
After 96 hours incubation at 33° C. the medium was removed, cell washed with PBS and stained with methylene blue (Gibco). Cytopathic effect (cpe) was noted visually and wells marked either as positive or negative when view under a light microscope at 4× magnification.

Q: How did the MIC ([1]; 22 hrs, read-out: MIC) turn out when `CCCCCCCCCCCCCCCCO` [C0, 1-Hexadecanol, reference compound] was run?
A: 880 µM (≈ 213 µg/mL)

Q: What about the MIC ([1]; 48 hrs, read-out: MIC) of the same molecule?
A: 880 µM (≈ 213 µg/mL)

Q: And the MIC ([2]; 22 hrs, read-out: MIC)?
A: > 880 µM

Q: And the MIC ([2]; 48 hrs, read-out: MIC)?
A: > 880 µM

Q: What about the MIC ([3]; 22 hrs, read-out: MIC) of the same molecule?
A: > 880 µM

Q: And the MIC ([3]; 48 hrs, read-out: MIC)?
A: > 880 µM

Q: What about the MIC ([4]; Salmonella enterica, 22 hrs, read-out: MIC) of the same molecule?
A: 880 µM (≈ 213 µg/mL)

Q: What about the MIC ([4]; Salmonella enterica, 48 hrs, read-out: MIC) of the same molecule?
A: 880 µM (≈ 213 µg/mL)

Q: And the MIC ([5]; 22 hrs, read-out: MIC)?
A: > 880 µM

Q: What about the MIC ([5]; 48 hrs, read-out: MIC) of the same molecule?
A: > 880 µM

Q: Which results are given for `CCCCCCCCCCCCCOCCOCCOCCOCCOCCOCCO` [C13E6, polyoxyethylene (6) tridecyl alcohol]?
A: MIC ([1]; 22 hrs): >880 µM; MIC ([1]; 48 hrs): >880 µM; MIC ([2]; 22 hrs): >880 µM; MIC ([2]; 48 hrs): >880 µM; MIC ([3]; 22 hrs): >880 µM; MIC ([3]; 48 hrs): >880 µM; MIC ([4]; 22 hrs): >880 µM; MIC ([4]; 48 hrs): >880 µM; MIC ([5]; 22 hrs): >880 µM; MIC ([5]; 48 hrs): >880 µM

Q: Which results are given for `CCCCCCCCCCCCOCCO` [L1, Ethylene Glycol Monododecyl Ether]?
A: MIC (%) volume/volume [6]: 0.25 % volume/volume; MIC (%) volume/volume [7]: 0.25 % volume/volume; MIC (%) volume/volume ([8]; Acinetobacter baumannii 19606): 1 % volume/volume; MIC (%) volume/volume ([8]; Escherichia coli 10418): 0.25 % volume/volume; MIC (%) volume/volume ([8]; Klebsiella pneumoniae 9528): 0.5 % volume/volume; activity against selected Gram-negative species ([8]; at higher concentrations, 10000 cfu/spot): shows activity

Q: For `CCCCCCCCCCCCOCCOCCOCCOCCO` [L4, Tetraethylene Glycol Monododecyl Ether], which “state of treated, uninfected cells” value [9] is on record?
A: healthy and showed little cellular apathy

Q: And the “MIC (%) volume/volume” value [6]?
A: 0.03 % volume/volume

Q: And the “MIC (%) volume/volume” value [7]?
A: 0.03 % volume/volume

Q: And the “MIC (%) volume/volume” value ([8]; Acinetobacter baumannii 19606)?
A: >4 % volume/volume

Q: What about the “MIC (%) volume/volume” value ([8]; Escherichia coli 10418) of the same molecule?
A: >4 % volume/volume

Q: And the “MIC (%) volume/volume” value ([8]; Klebsiella pneumoniae 9528)?
A: >4 % volume/volume

From US20130165368A1, “ANTIMICROBIAL COMPOUNDS” (priority 2010, published 2013)
